Measured values reported in US12303471B2, “Methods of treatment of temozolomide-resistant glioma using coenzyme Q10” (BPGbio, Inc., priority 2015, dated 2025).

Experiments:
[1] = system: triple-negative breast cancer cell line MDA-MB231; test: Coenzyme Q10 sensitivity (IC50/IC90) of MDA-MB231 cells; format: cell-based; conditions: Homo sapiens, MDA-MB-231
Experimental: (§1) Oxygen consumption rate (OCR) was measured during various states of succinate-fueled mitochondrial respiration in the triple-negative breast cancer cell line MDA-MB231 and the mutant K-Ras-driven pancreatic cancer cell line MIA PaCa-2 treated with different concentrations of Coenzyme Q10. […] The assays were performed in permeabilized adherent cells using the Seahorse XF96 Analyzer. Cells were permeabilized with XF PMP reagent and put into mitochondrial State 3 by replacing the growth media with Mitochondrial Assay Solution (containing mannitol, sucrose, KH2PO4, MgCl2, HEPES, and EGTA) supplemented with succinate, rotenone (to block reverse electron transfer back to Complex I), and ADP. OCR was measured in State 3, and then again upon sequential injection of oligomycin and FCCP to induce State 4o (o=oligomycin) and State 3u (u=uncoupled).

[2] = system: mutant K-Ras-driven pancreatic cancer cell line MIA PaCa-2; test: Coenzyme Q10 sensitivity (IC50/IC90) of MIA PaCa-2 cells; format: cell-based; conditions: Homo sapiens
Experimental: as §1

MDA-MB231 = test: Oxygen consumption rate during succinate-fueled mitochondrial respiration, permeabilized cells, Seahorse XF96; format: cell-based; conditions: 100, 155 or 310 μM Coenzyme Q10, State 3, State 4o, State 3u, FIG. 1
Experimental: as §1

MIA PaCa-2 = test: as above; format: cell-based; conditions: 100, 137 or 274 μM Coenzyme Q10, State 3, State 4o, State 3u, FIG. 1
Experimental: as §1

Rat C6 glioma cells = test: Rat model of glioma (C6 glioma cell implantation); format: in vivo, Sprague-Dawley rats
Experimental: The C6 glioma cells develop into a glioma-like tumor. The rats bearing C6 gliomas were treated twice per day with 5, 10, 25 or 50 mg/kg Coenzyme Q10 by intraperitoneal or subcutaneous injection. Coenzyme Q10 treatment was initiated 1 day (n=3), 4 days (n=14), or 8 days (n=3) after implantation of C6 glioma cells. Coenzyme Q10 treatment was continued twice daily until the rat died, or until 34 days after implantation of glioma cells. […] Four of the rats treated with Coenzyme Q10 survived for at least 50 days after implantation of the C6 glioma cells, while none of the untreated control rats survived more than 15 days after implantation. In fact, two of the rats treated with Coenzyme Q10 survived more than 100 days post implantation (see below and FIGS. 9 and 10). Of the four rats that were alive at Day 50, 1 received 10 mg/kg Coenzyme Q10 starting 4 days after implantation, and 3 received 50 mg/kg Coenzyme Q10 starting 4 days or 8 days after implantation.
Enlarged ventricles (hydrocephalus) were present 27 days post C6 implantation (FIG. 9A). At 34 days post-implantation, enlarged ventricles were stilled observed. In addition, there was a complex mass in the tumor area which was not clearly growing (FIG. 9B). Coenzyme Q10 treatment was discontinued at Day 34. […] At 27 days post C6 implantation, a complex mass was visible, but it was unclear if this mass represented a tumor or a scar (FIG. 10A). At 34 days post C6 implantation, a scar was visible at the site of implantation and improvement in the overall condition of the rat was observed that was not consistent with tumor growth (FIG. 10B).

[3] = Coenzyme Q10 plasma levels in rats; format: in vivo; conditions: four days after treatment initiated
Experimental: Coenzyme Q10 plasma levels were measured in the rats bearing C6 gliomas four days after Coenzyme Q10 treatment was initiated.

[4] = system: human U373 cells (TMZ-sensitive and TMZ-resistant GBM cells); test: TMZ-sensitive and TMZ-resistant U373 glioblastoma tumors in mice; format: in vivo; conditions: intravenous single daily dose of 4% Coenzyme Q10, 50 mg/kg/day
From the text: Equal numbers (1×10^7) of human U373 cells left untreated and thus sensitive (TMZ-sensitive) versus TMZ long-term treated (TMZ-resistant) GBM cells (see Calve et al., 2010, Neoplasia 12(9): 727-739, which is incorporated by reference herein in its entirety) are suspended in MATRIGEL® and injected into mice. Tumors are allowed to develop, and treatment is not initiated unless tumors are present.
Mice having tumors are randomized into 4 groups of 30 mice each as follows: • i. Group 1—No treatment, TMZ-sensitive • ii. Group 2—No treatment, TMZ-resistant • iii. Group 3—Intravenous single daily dose of 4% Coenzyme Q10, 50 mg/kg/day, TMZ-sensitive • iv. Group 4—Intravenous single daily dose of 4% Coenzyme Q10, 50 mg/kg/day, TMZ-resistant
Animals are observed for viability and tumor growth is monitored. Animal survival results are collected through day 400.

[5] = system: TMZ-resistant glioblastoma; test: Coenzyme Q10 in TMZ-resistant glioblastoma in humans; format: in vivo; conditions: 4% coenzyme Q10 nanosuspension, 24-, 48- or 96-hour infusion, monotherapy
Experimental: The efficacy of Coenzyme Q10 in treating TMZ-resistant glioblastoma is evaluated in humans using Coenzyme Q10 monotherapy and Coenzyme Q10 in combination with chemotherapy. The Coenzyme Q10 is provided as a 4% coenzyme Q10 nanosuspension formulation as described in WO 2011/112900, the entire contents of which are expressly incorporated herein by reference. The study is designed with dosing schedules of a 24-hour infusion, 48-hour infusion, or 96-hour continuous infusion. This extended dosage schedule is intended to decrease Coenzyme Q10 Cmax values and maintain steady-state levels. Patient survival time and glioblastoma tumor status before, during, and after Coenzyme Q10 treatment is evaluated.

MDA-MB231 cells [6] = test: CellTiter-Fluor viability assay, co-treatment with Coenzyme Q10 and Complex II inhibitors; conditions: 5 μM Atpenin A5 with 0-1600 μM Coenzyme Q10, 72 h; FIG. 4
Experimental: To assess whether the effects of Coenzyme Q10 on Complex II-mediated respiration are functionally linked to Coenzyme Q10-induced cytotoxicity, MDA-MB231 cells were co-treated with two inhibitors of Complex II (atpenin A5 and malonate) which act at separate sites in Complex II.
The viability of MDA-MB231 cells treated with atpenin A5 and Coenzyme Q10 or malonate and Coenzyme Q10 was determined by a CellTiter-Fluor viability assay (Promega, Cat. No. G6080). Briefly, cells were co-treated with 0, 25, 50, 100, 200, 400, 800 or 1600 μM Coenzyme Q10 and either 5 μM Atpenin A5 or 5 mM malonic acid for 72 h, and then assayed per the manufacture's protocol.

MDA-MB231 cells [7] = test: Propidium iodide (PI) and Annexin V flow cytometry cell death assay; format: cell-based; conditions: malonate 5 mM with Coenzyme Q10 155 μM or 310 μM, 72 hours; FIG. 5
Experimental: MDA-MB231 cells were treated with Coenzyme Q10 and/or malonate as shown below: • 1. Untreated • 2. Malonate (5 mM) • 3.
At 72 hours post treatment, cell culture supernatant (containing detached apoptotic cells) and adherent cells were harvested by trypsinization, centrifuged at 500 g for 5 minutes, and the resulting pellets were washed in staining media (PBS, 0.5% FBS). Cells were co-stained with FITC conjugated anti-Annexin-V (1:100, Molecular Probes) to detect PS exposure on the outer membrane surface and Propidium Iodine (PI, 1:2500, Molecular Probes) in 200 μL binding buffer (Molecular Probes). After a 15 minute incubation in the dark, the percentage of Annexin V+/PI+ cells was analyzed using an Accuri C6 Flow Cytometer (BD Biosciences) and samples were run within one hour after staining.
The cells were rated as follows: • 1. PI-negative and Annexin V-negative: viable • 2. PI-negative and Annexin V-positive: early apoptosis • 3. PI-positive and Annexin V-positive: late apoptosis • 4. PI-positive and Annexin V-negative: dead.

[8] = system: recurrent high-grade gliomas; conditions: patients with recurrent high-grade gliomas; cited from earlier work

In the case of `COC1=C(OC)C(=O)C(CC=C(C)CCC=C(C)CCC=C(C)CCC=C(C)CCC=C(C)CCC=C(C)CCC=C(C)CCC=C(C)CCC=C(C)CCC=C(C)C)=C(C)C1=O` [Coenzyme Q10, 2-(3,7,11,15,19,23,27,31,35,39-decamethyltetraconta-2,6,10,14,18,22,26,30,34,38-decaenyl)-5,6-dimethoxy-3-methyl-cyclohexa-2,5-diene-1,4-dione], the IC50 [1] is reported as 155 µM, the IC90 [1] is reported as 310 µM and the IC50 [2] is reported as 137 µM. The IC90 [2] was 274 µM, the “succinate-fueled respiration (oxygen consumption rate)” value (MDA-MB231) was “significantly decreased by Coenzyme Q10 in a dose dependent manner” and the “succinate-fueled respiration (oxygen consumption rate)” value (MIA PaCa-2) was “significantly decreased by Coenzyme Q10 in a dose dependent manner”. The “condition of surviving rat, coronal sections” value (Rat C6 glioma cells; 10 mg/kg twice daily i.p. from day 4, discontinued Day 34, 103 days post-implantation, FIG. 9C) was “appeared normal with possible scar tissue in the tumor area”, the “rats alive at Day 50” value (Rat C6 glioma cells; 10 mg/kg twice daily, starting 4 days after implantation) was 1 and the “condition of surviving rat, coronal sections” value (Rat C6 glioma cells; 50 mg/kg twice daily i.p. from day 4, 103 days after C6 implantation, FIG. 10C) was “clinically normal”. The “rats alive at Day 50” value (Rat C6 glioma cells; 50 mg/kg twice daily, starting 4 days or 8 days after implantation) was 3, the “rats that survived for at least 50 days after implantation of the C6 glioma cells” value (Rat C6 glioma cells; 5, 10, 25 or 50 mg/kg twice per day intraperitoneal, n=20, no untreated control (n=33) survived more than 15 days) was “Four” and the “rats that survived more than 100 days post implantation” value (Rat C6 glioma cells; Coenzyme Q10 twice daily intraperitoneal, n=20) was “two”. For the same molecule, the “dose that resulted in the highest Coenzyme Q10 plasma levels” value ([3]; 5, 10, 25 or 50 mg/kg twice daily intraperitoneal, FIG. 12) was 25 mg/kg, the “Coenzyme Q10 plasma levels, intraperitoneal compared to subcutaneous injection” value ([3]; rats bearing C6 gliomas, 50 mg/kg twice daily, FIG. 11) was “significantly higher” and the “glioblastoma tumor growth compared to control (untreated) animals” value [4] was “significantly reduced glioblastoma tumor growth”. For the same molecule, the “survival compared to control (untreated) animals” value ([4]; through day 400) was “significantly increased survival” and the “tumor growth relative to standard chemotherapy” value [5] was “reduce tumor growth”.

With `COc1[nH]c(=O)c(C(=O)[C@@H](C)C[C@H](C)[C@@H](Cl)CCl)c(O)c1OC` [atpenin A5] the “effect of co-treatment on Coenzyme Q10-induced cytotoxicity” value (MDA-MB231 cells [6]) was “enhanced cytotoxicity”.

In the case of `O=C(O)CC(=O)O` [malonate], the “effect on Coenzyme Q10-induced cell death” value (MDA-MB231 cells [7]) is reported as “attenuated Coenzyme Q10-induced cell death”.

For “Bevacizumab: monoclonal antibody against vascular endothelial growth factor (VEGF)”, the overall median survival [8] is listed as “improved overall median survival” and the response rates [8] is listed as 32-62%.
